Measurements taken from the NIST ThermoML archive (doi:10.1016/j.fluid.2015.03.038).
Where “and” joins values, the source holds several entries; their conditions need not be identical. Identical values can stand only once. Numbers after ± are expanded uncertainties.

Settings: Liquid

## OCC(O)CO [glycerol]
303.59 K, static (had to override TRC unc)
  vapor or sublimation pressure: 4.15e-05 ± 7e-07 kPa
303.61 K, static (had to override TRC unc)
  vapor or sublimation pressure: 4.19e-05 ± 7e-07 kPa
304.56 K, static (had to override TRC unc)
  vapor or sublimation pressure: 4.68e-05 ± 7e-07 kPa
306.03 K, static (had to override TRC unc)
  vapor or sublimation pressure: 5.56e-05 ± 8e-07 kPa
308.43 K, static (had to override TRC unc)
  vapor or sublimation pressure: 7.28e-05 ± 9e-07 kPa
310.89 K, static (had to override TRC unc)
  vapor or sublimation pressure: 9.63e-05 ± 1e-06 kPa
313.29 K, static (had to override TRC unc)
  vapor or sublimation pressure: 0.000125 ± 1.1e-06 kPa
315.71 K, static (had to override TRC unc)
  vapor or sublimation pressure: 0.0001634 ± 1.3e-06 kPa
318.12 K, static (had to override TRC unc)
  vapor or sublimation pressure: 0.0002107 ± 1.5e-06 kPa
320.57 K, static (had to override TRC unc)
  vapor or sublimation pressure: 0.0002701 ± 1.9e-06 kPa
322.95 K, static (had to override TRC unc)
  vapor or sublimation pressure: 0.0003472 ± 2.1e-06 kPa
325.42 K, static (had to override TRC unc)
  vapor or sublimation pressure: 0.0004428 ± 2.7e-06 kPa
327.82 K, static (had to override TRC unc)
  vapor or sublimation pressure: 0.0005644 ± 3.4e-06 kPa
330.3 K, static (had to override TRC unc)
  vapor or sublimation pressure: 0.0007165 ± 4.3e-06 kPa
332.72 K, static (had to override TRC unc)
  vapor or sublimation pressure: 0.0009037 ± 5.4e-06 kPa
335.14 K, static (had to override TRC unc)
  vapor or sublimation pressure: 0.001132 ± 5.7e-06 kPa
338.2 K, transpiration (had to override TRC unc)
  vapor or sublimation pressure: 0.00151 ± 4e-05 kPa
338.25 K, static (had to override TRC unc)
  vapor or sublimation pressure: 0.001502 ± 7.5e-06 kPa
340.68 K, static (had to override TRC unc)
  vapor or sublimation pressure: 0.001872 ± 9.4e-06 kPa
341.7 K, transpiration (had to override TRC unc)
  vapor or sublimation pressure: 0.0021 ± 6e-05 kPa
343.08 K, static (had to override TRC unc)
  vapor or sublimation pressure: 0.00232 ± 1.2e-05 kPa
345.51 K, static (had to override TRC unc)
  vapor or sublimation pressure: 0.002876 ± 1.4e-05 kPa
347.7 K, transpiration (had to override TRC unc)
  vapor or sublimation pressure: 0.00355 ± 9e-05 kPa
347.91 K, static (had to override TRC unc)
  vapor or sublimation pressure: 0.003529 ± 1.8e-05 kPa
350.34 K, static (had to override TRC unc)
  vapor or sublimation pressure: 0.00436 ± 2.2e-05 kPa
351.5 K, transpiration (had to override TRC unc)
  vapor or sublimation pressure: 0.00503 ± 0.00013 kPa
352.57 K, static (had to override TRC unc)
  vapor or sublimation pressure: 0.00526 ± 7.9e-05 kPa
352.58 K, static (had to override TRC unc)
  vapor or sublimation pressure: 0.00527 ± 7.4e-05 kPa
352.6 K, static (had to override TRC unc)
  vapor or sublimation pressure: 0.00528 ± 7.4e-05 kPa
352.73 K, static (had to override TRC unc)
  vapor or sublimation pressure: 0.005318 ± 2.7e-05 kPa
354.5 K, transpiration (had to override TRC unc)
  vapor or sublimation pressure: 0.00631 ± 0.00018 kPa
354.98 K, static (had to override TRC unc)
  vapor or sublimation pressure: 0.00639 ± 8.3e-05 kPa
354.99 K, static (had to override TRC unc)
  vapor or sublimation pressure: 0.00641 ± 8.3e-05 kPa
355.18 K, static (had to override TRC unc)
  vapor or sublimation pressure: 0.006488 ± 3.2e-05 kPa
357.39 K, static (had to override TRC unc)
  vapor or sublimation pressure: 0.00777 ± 8.6e-05 kPa
357.42 K, static (had to override TRC unc)
  vapor or sublimation pressure: 0.00782 ± 8.6e-05 kPa
357.5 K, transpiration (had to override TRC unc)
  vapor or sublimation pressure: 0.00831 ± 0.00023 kPa
357.57 K, static (had to override TRC unc)
  vapor or sublimation pressure: 0.007863 ± 3.9e-05 kPa
359.8 K, static (had to override TRC unc)
  vapor or sublimation pressure: 0.00938 ± 9.4e-05 kPa
359.82 K, static (had to override TRC unc)
  vapor or sublimation pressure: 0.00939 ± 9.4e-05 kPa
360.01 K, static (had to override TRC unc)
  vapor or sublimation pressure: 0.009523 ± 4.8e-05 kPa
360.1 K, transpiration (had to override TRC unc)
  vapor or sublimation pressure: 0.00989 ± 0.00027 kPa
362.42 K, static (had to override TRC unc)
  vapor or sublimation pressure: 0.01146 ± 5.7e-05 kPa
362.63 K, static (had to override TRC unc)
  vapor or sublimation pressure: 0.0117 ± 0.00011 kPa
362.66 K, static (had to override TRC unc)
  vapor or sublimation pressure: 0.01179 ± 0.00011 kPa
363.2 K, transpiration (had to override TRC unc)
  vapor or sublimation pressure: 0.01274 ± 0.00034 kPa
364.82 K, static (had to override TRC unc)
  vapor or sublimation pressure: 0.0138 ± 0.00012 kPa
365.07 K, static (had to override TRC unc)
  vapor or sublimation pressure: 0.0141 ± 0.00013 kPa
365.08 K, static (had to override TRC unc)
  vapor or sublimation pressure: 0.01409 ± 0.00013 kPa
365.9 K, transpiration (had to override TRC unc)
  vapor or sublimation pressure: 0.01529 ± 0.00041 kPa
367.45 K, static (had to override TRC unc)
  vapor or sublimation pressure: 0.01686 ± 0.00013 kPa
367.48 K, static (had to override TRC unc)
  vapor or sublimation pressure: 0.01696 ± 0.00014 kPa
369.89 K, static (had to override TRC unc)
  vapor or sublimation pressure: 0.0202 ± 0.00014 kPa
369.91 K, static (had to override TRC unc)
  vapor or sublimation pressure: 0.02016 ± 0.00014 kPa
370.3 K, transpiration (had to override TRC unc)
  vapor or sublimation pressure: 0.0208 ± 0.00054 kPa
372.27 K, static (had to override TRC unc)
  vapor or sublimation pressure: 0.024 ± 0.00017 kPa
372.29 K, static (had to override TRC unc)
  vapor or sublimation pressure: 0.02415 ± 0.00017 kPa
374.7 K, static (had to override TRC unc)
  vapor or sublimation pressure: 0.0286 ± 0.0002 kPa
374.73 K, static (had to override TRC unc)
  vapor or sublimation pressure: 0.0286 ± 0.0002 kPa
377.08 K, static (had to override TRC unc)
  vapor or sublimation pressure: 0.03379 ± 0.0002 kPa
377.11 K, static (had to override TRC unc)
  vapor or sublimation pressure: 0.03408 ± 0.0002 kPa
377.77 K, static (had to override TRC unc)
  vapor or sublimation pressure: 0.03569 ± 0.00021 kPa
380.17 K, static (had to override TRC unc)
  vapor or sublimation pressure: 0.04186 ± 0.00025 kPa
380.19 K, static (had to override TRC unc)
  vapor or sublimation pressure: 0.04192 ± 0.00025 kPa
382.55 K, static (had to override TRC unc)
  vapor or sublimation pressure: 0.04942 ± 0.0003 kPa
382.59 K, static (had to override TRC unc)
  vapor or sublimation pressure: 0.04972 ± 0.0003 kPa and 0.0496 ± 0.0003 kPa
384.99 K, static (had to override TRC unc)
  vapor or sublimation pressure: 0.0582 ± 0.00035 kPa
385.01 K, static (had to override TRC unc)
  vapor or sublimation pressure: 0.05821 ± 0.00035 kPa
387.37 K, static (had to override TRC unc)
  vapor or sublimation pressure: 0.06807 ± 0.00041 kPa
387.39 K, static (had to override TRC unc)
  vapor or sublimation pressure: 0.06861 ± 0.00041 kPa
389.8 K, static (had to override TRC unc)
  vapor or sublimation pressure: 0.07986 ± 0.00048 kPa
389.83 K, static (had to override TRC unc)
  vapor or sublimation pressure: 0.07998 ± 0.00048 kPa
392.18 K, static (had to override TRC unc)
  vapor or sublimation pressure: 0.09311 ± 0.00056 kPa
392.2 K, static (had to override TRC unc)
  vapor or sublimation pressure: 0.09367 ± 0.00056 kPa
394.61 K, static (had to override TRC unc)
  vapor or sublimation pressure: 0.1087 ± 0.00054 kPa
394.64 K, static (had to override TRC unc)
  vapor or sublimation pressure: 0.1087 ± 0.00054 kPa
397 K, static (had to override TRC unc)
  vapor or sublimation pressure: 0.1258 ± 0.00063 kPa
397.02 K, static (had to override TRC unc)
  vapor or sublimation pressure: 0.1266 ± 0.00063 kPa
399.42 K, static (had to override TRC unc)
  vapor or sublimation pressure: 0.1462 ± 0.00073 kPa
399.45 K, static (had to override TRC unc)
  vapor or sublimation pressure: 0.1464 ± 0.00073 kPa
401.81 K, static (had to override TRC unc)
  vapor or sublimation pressure: 0.1688 ± 0.00084 kPa and 0.1687 ± 0.00084 kPa
401.83 K, static (had to override TRC unc)
  vapor or sublimation pressure: 0.1694 ± 0.00085 kPa
404.23 K, static (had to override TRC unc)
  vapor or sublimation pressure: 0.1952 ± 0.001 kPa
404.26 K, static (had to override TRC unc)
  vapor or sublimation pressure: 0.1952 ± 0.00098 kPa
406.62 K, static (had to override TRC unc)
  vapor or sublimation pressure: 0.2242 ± 0.0011 kPa and 0.224 ± 0.0011 kPa
406.64 K, static (had to override TRC unc)
  vapor or sublimation pressure: 0.2251 ± 0.0011 kPa
409.68 K, static (had to override TRC unc)
  vapor or sublimation pressure: 0.2687 ± 0.0013 kPa
409.69 K, static (had to override TRC unc)
  vapor or sublimation pressure: 0.269 ± 0.0013 kPa
412.08 K, static (had to override TRC unc)
  vapor or sublimation pressure: 0.308 ± 0.0015 kPa
412.11 K, static (had to override TRC unc)
  vapor or sublimation pressure: 0.3089 ± 0.0015 kPa
414.48 K, static (had to override TRC unc)
  vapor or sublimation pressure: 0.3526 ± 0.0018 kPa
414.49 K, static (had to override TRC unc)
  vapor or sublimation pressure: 0.3526 ± 0.0018 kPa
416.89 K, static (had to override TRC unc)
  vapor or sublimation pressure: 0.4023 ± 0.002 kPa
416.92 K, static (had to override TRC unc)
  vapor or sublimation pressure: 0.4033 ± 0.002 kPa
419.3 K, static (had to override TRC unc)
  vapor or sublimation pressure: 0.4585 ± 0.0023 kPa and 0.4583 ± 0.0023 kPa
421.7 K, static (had to override TRC unc)
  vapor or sublimation pressure: 0.521 ± 0.0026 kPa
421.73 K, static (had to override TRC unc)
  vapor or sublimation pressure: 0.5224 ± 0.0026 kPa
424.1 K, static (had to override TRC unc)
  vapor or sublimation pressure: 0.5919 ± 0.003 kPa
424.11 K, static (had to override TRC unc)
  vapor or sublimation pressure: 0.5923 ± 0.003 kPa
426.5 K, static (had to override TRC unc)
  vapor or sublimation pressure: 0.6698 ± 0.0034 kPa
426.53 K, static (had to override TRC unc)
  vapor or sublimation pressure: 0.6725 ± 0.0034 kPa
428.91 K, static (had to override TRC unc)
  vapor or sublimation pressure: 0.7586 ± 0.0038 kPa and 0.7584 ± 0.0038 kPa
431.31 K, static (had to override TRC unc)
  vapor or sublimation pressure: 0.8565 ± 0.0043 kPa
431.34 K, static (had to override TRC unc)
  vapor or sublimation pressure: 0.8583 ± 0.0043 kPa
433.72 K, static (had to override TRC unc)
  vapor or sublimation pressure: 0.9653 ± 0.0048 kPa
433.73 K, static (had to override TRC unc)
  vapor or sublimation pressure: 0.9671 ± 0.0048 kPa
436.11 K, static (had to override TRC unc)
  vapor or sublimation pressure: 1.086 ± 0.0054 kPa
436.13 K, static (had to override TRC unc)
  vapor or sublimation pressure: 1.087 ± 0.0054 kPa
